Laboratory results: patent US8846684B2 (priority 2011, dated 2014)
Like-named read-outs stand apart in the source and are kept apart here.

Experiments:
WEEV replicon = assay: microbe, parasite or virus in culture; format: cell-based, Western equine encephalitis virus
WEEV = format: cell-based, Western equine encephalitis virus
NSV = format: cell-based, neuroadapted Sindbis virus
[1] = test system: vaccine strain of Venezuelan equine encephalitis virus (VEEV); conditions: mouse, in vivo; cited from earlier work
wild-type VEEV = conditions: in vivo; cited from earlier work
[2] = Western equine encephalitis virus, read-out: Activity IC50 (μM)
[3] = Western equine encephalitis virus
[4] = Western equine encephalitis virus; read-out: 50 μM (% control) Luc

Row | Compound | IC50 (WEEV replicon; [2]) [µM] | WEEV titers (virion production, plaque assay) (WEEV) | NSV titers (virion production, plaque assay) (NSV) | IC50 (WEEV replicon; [3]) [µM] | activity at 50 µM (WEEV replicon; [4]) [%] | also measured
1 | O=C(NCc1ccccc1)C1CCN(C(=O)c2cc3ccccc3n2Cc2ccc(Cl)cc2)CC1 [CCG 102516, N-benzyl-1-(1-(4-chlorobenzyl)-1H-indole-2-carbonyl)piperidine-4-carboxamide] | 18.6 | significantly reduced | significantly reduced |  |  | activity at 2 µM (WEEV replicon; Western equine encephalitis virus; read-out: Activity (% control LUC) 2 μM): 88%; activity at 10 µM (WEEV replicon; Western equine encephalitis virus; read-out: Activity (% control LUC) 10 μM): 76.9%; activity at 50 µM (WEEV replicon; Western equine encephalitis virus; read-out: Activity (% control LUC) 50 μM): 59.7%
2 | C[C@@H](NC(=O)C1CCN(C(=O)c2cc3ccccc3n2Cc2ccc(Cl)cc2)CC1)c1ccccc1 [CCG 203926, (R)-1-(1-(4-chlorobenzyl)-1H-indole-2-carbonyl)-N-(1-phenylethyl)piperidine-4-carboxamide] | 8.7 | significantly reduced | significantly reduced |  |  | activity in the replicon inhibition assay (in words) (WEEV replicon): active; activity at 2 µM (WEEV replicon; Western equine encephalitis virus, read-out: Activity (% control LUC) 2 μM): 100%; activity at 10 µM (WEEV replicon; Western equine encephalitis virus, read-out: Activity (% control LUC) 10 μM): 55%; activity at 50 µM (WEEV replicon; Western equine encephalitis virus, read-out: Activity (% control LUC) 50 μM): 17%; cytotoxicity (BSR-T7/C3 clone): relatively low cytotoxicity
3 | CC(CNC(=O)C1CCN(C(=O)c2cc3ccccc3n2Cc2ccc(Cl)cc2)CC1)c1ccncc1 (stereo not shown) [CCG 206580, 1-(1-(4-chlorobenzyl)-1H-indole-2-carbonyl)-N-(2-(pyridin-4-yl)propyl)piperidine-4-carboxamide] |  |  |  | 1.66 | 13.4 | 
4 | O=C(NCC1COc2cnccc21)C1CCN(C(=O)c2cc3ccccc3n2Cc2ccc(Cl)cc2)CC1 (stereo not shown) [CCG 206581, 1-(1-(4-chlorobenzyl)-1H-indole-2-carbonyl)-N-((2,3-dihydrofuro[2,3-c]pyridin-3-yl)methyl)piperidine-4-carboxamide] |  |  |  | 3.58 | 8.6 | 
5 | O=C(NCc1ccccc1)C1CCN(C(=O)c2nccn2Cc2ccc(Cl)cc2)CC1 [CCG 206586, N-benzyl-1-(1-(4-chlorobenzyl)-1H-imidazole-2-carbonyl)piperidine-4-carboxamide] |  |  |  |  | 69.5 | 
6 | (−)-carbodine |  |  |  |  |  | disease outcome [1]: improved outcome; lowering of peak CNS viral titers [1]: half-log; benefit following wild-type VEEV challenge (wild-type VEEV): no benefit
